As usually defined, the GI50 is the concentration that inhibits growth by half.

In assay [1] the test system is HCT116 human tumour xenografts. Description: Anti-tumour activity (time to RTV3/RTV4) in HCT116 human tumour xenografts. Type of assay: in vivo, mice. As to conditions: 1 mg/kg PD 0325901, 100 mg/kg GDC-0941, alone or in combination, p.o. once daily for 14 days. The procedure:
(§1) Animal studies were all carried out using female athymic CD1 nude mice (Charles River, Kent, UK), implanted with HCT116 or HT29 xenografts (1×10^7 cells in 50 µl media injected subcutaneously into the right flank), maintained and handled in isolators under specific pathogen-free conditions.
(In general: A xenograft is tissue or cells of one species grown in another, often human tumour cells in immunodeficient mice.)

The test system of assay [2] is HT29 human tumour xenografts. In words: Anti-tumour activity (time to RTV3/RTV4) in HT29 human tumour xenografts. Type of assay: in vivo, mice. As to conditions: 1 mg/kg PD 0325901, 100 mg/kg GDC-0941, alone or in combination, p.o. once daily for 14 days. The procedure: as §1
Assay [3] deals with HCT116 human tumour xenografts. Description: [18F]-FLT PET tumour uptake in HCT116 xenografts. The format is in vivo, mice. As to conditions: 1 mg/kg PD 0325901, 100 mg/kg GDC-0941, alone or in combination, p.o. once daily for 2 days. The procedure: Before treatment and after 2 days of treatment as described above, mice bearing HCT116 human tumour xenografts (7–9 mice/group) were anaesthetised, cannulated via their tail vein and placed in the prone position on a custom-made heated bed, which held three mice at once, within a MOSAIC PET scanner (Philips, Eindhoven, NL). [^18F]-FLT was obtained from PETNET (PETNET, Nottingham, UK), and radioactivity levels were measured using a Capintec well counter (Capintec, NJ, USA). Approximately 10 MBq of [^18F]-FLT was administered intravenously and a 1 hour dynamic PET scan was performed, consisting of ten 1 minute, six 5 minute and two 10 minute time frames. Mice were recovered after scanning and continued to receive treatment for the remainder of the study. Data were analysed using Imalytics software (Philips, Aachen, Germany); a 3D region of interest was drawn around the tumour and the standardised uptake value (SUV) was calculated by dividing the tissue concentration (MBq/ml) by the injected dose (MBq)/g body weight. Mean SUV values were then plotted against time, and the area under the curve (AUC) and the percentage change in the area under the curve relative to the baseline scan was calculated.

The test system of assay [4] is phospho-p44/42 MAPK (Thr202/Tyr204) (ERK1/2). Description: PD Western blot of HCT116 tumour lysates: ERK1/2 phosphorylation. Type of assay: in vivo, mice. How it is done: (§2) Blood was collected into heparinised tubes, and plasma was separated and stored at −20°C until analysed. Tumours were removed, snap frozen in liquid nitrogen and stored at −80°C prior to PK and PD analyses, as described below.
For PD analyses, tumours (2 to 4∼2.5 mm^3 pieces) were disaggregated in 1 ml PhosphoSafe™ extraction reagent (Merck Chemicals Ltd, Nottingham, Nottinghamshire, UK) containing a protease inhibitor cocktail (Pierce, Thermo Scientific, Rockford, Illinois, USA) at the manufacturer's recommended dilution using a Medimachine™ (BD Biosciences, Oxford, UK), centrifuged, and the supernatant removed and analysed by Western blotting. Proteins were resolved on Novex® 4–12% (w/w) Tris-glycine gels (Invitrogen Ltd, Renfrew, Paisley, UK) and electrotransferred onto Hybond C nitrocellulose membrane (GE Healthcare Life Sciences, Hatfield, Hertfordshire, UK). Membranes were incubated with phospho-4EBP1 (Thr37/46) (#2855), phospho-p44/42 MAPK (Thr202/Tyr204) (#4370), phospho-Akt (Ser473) (#4060) or phospho-S6 ribosomal protein (Ser235/236) (#4858) monoclonal antibodies obtained from Cell Signalling Technology (New England BioLabs (UK) Ltd, Hitchin, Hertfordshire, UK). Antibody binding was detected by incubation with a HRP-conjugated goat anti-rabbit polyclonal antibody (Dako, Glastrop, Denmark). Blots were developed using Pierce ECL (enhanced chemiluminescence) western blotting substrate (Thermo Scientific, Rockford, Illinois, USA), or SuperSignal® West Dura extended duration substrate (Thermo Scientific, Rockford, Illinois, USA), and Kodak X-ray film (Genetic Research Instrumentation Ltd, Braintree, Essex, UK) on a MediPhot 937 film developer (Colenta, Weiner Neustadt, Austria), then digitally scanned.

The subject of the next assay is phospho-Akt (Ser473). In words: PD Western blot of HCT116 tumour lysates: AKT phosphorylation. The format is in vivo, mice. Conditions: 0.25–24 hours after single p.o. dose; 1 mg/kg PD 0325901, 100 mg/kg GDC-0941 or combination (combination compared to single agent PI3K inhibitor). How it is done:
as §2
For PD analyses, tumours (2 to 4∼2.5 mm^3 pieces) were disaggregated in 1 ml PhosphoSafe™ extraction reagent (Merck Chemicals Ltd, Nottingham, Nottinghamshire, UK) containing a protease inhibitor cocktail (Pierce, Thermo Scientific, Rockford, Illinois, USA) at the manufacturer's recommended dilution using a Medimachine™ (BD Biosciences, Oxford, UK), centrifuged, and the supernatant removed and analysed by Western blotting. […] Antibody binding was detected by incubation with a HRP-conjugated goat anti-rabbit polyclonal antibody (Dako, Glastrop, Denmark).

Assay [5] concerns phospho-S6 ribosomal protein (Ser235/236). Description: PD Western blot of HCT116 tumour lysates: S6 phosphorylation. As to conditions: 0.25–24 hours after single p.o. dose; 1 mg/kg PD 0325901, 100 mg/kg GDC-0941 or combination (combination compared to single agent PI3K inhibitor). The format is in vivo, mice.
Another assay has as its system phospho-4EBP1 (Thr37/46). Description: PD Western blot of HCT116 tumour lysates: 4EBP1 phosphorylation. Type of assay: in vivo, mice. Conditions: 0.25–24 hours after single p.o. dose; 1 mg/kg PD 0325901, 100 mg/kg GDC-0941 or combination (combination compared to single agent PI3K inhibitor).
Another assay deals with HCT116 cells. More on the design: method as in PMID 22415236. Conditions: previously determined; read-out: in vitro GI50; cited from earlier work.

With `CS(=O)(=O)N1CCN(Cc2cc3nc(-c4cccc5[nH]ncc45)nc(N4CCOCC4)c3s2)CC1` [GDC-0941, 2-(1H-Indazol-4-yl)-6-(4-methanesulfonyl-piperazin-1-ylmethyl)-4-morpholin-4-yl-thieno[3,2-d]pyrimidine], in assay [1], the “Time to RTV3, Mean ± SD” value worked out at 15 ± 4 days; the “Time to RTV3, Median ± IR” value turned out to be 16 ± 5 days; the “Time to RTV4, Mean ± SD” value came to 19 ± 5 days; the “Time to RTV4, Median ± IR” value was found to be 18 ± 4 days. In addition, in assay [2], the “Time to RTV3, Mean ± SD” value came to 11 ± 9 days; the “Time to RTV3, Median ± IR” value came out at 10 ± 6 days; the “Time to RTV4, Mean ± SD” value was 13 ± 9 days; the “Time to RTV4, Median ± IR” value stood at 10 ± 5 days. Further, the “decrease in tumour [18F]-FLT uptake (SUV AUC) after 2 days versus baseline” value in assay [3] is given as “no significant difference”. Moreover, in assay [4] (0.25–24 hours after single p.o. dose, 100 mg/kg GDC-0941 alone or with 1 mg/kg PD 0325901 (combination compared to single agent MEK inhibitor)), the “phosphorylation of ERK1/2 in tumour” value is recorded as “reduction”. Further, the “phosphorylation of AKT in tumour” value with phospho-Akt (Ser473) is “reduction”. The “phosphorylation of S6 in tumour” value in assay [5] is “reduction”. For the same compound, in the assay with phospho-4EBP1 (Thr37/46), the “phosphorylation of 4EBP1 in tumour” value is reported as “reduction”. Besides, the concentration for 50% growth inhibition (GI50) with HCT116 cells was 1080 nM.

With `O=C(NOC[C@H](O)CO)c1ccc(F)c(F)c1Nc1ccc(I)cc1F` [PD 0325901], in assay [1], the “Time to RTV3, Mean ± SD” value was 19 ± 7 days; the “Time to RTV3, Median ± IR” value was 18 ± 12 days; the “Time to RTV4, Mean ± SD” value came out at 23 ± 8 days; the “Time to RTV4, Median ± IR” value is 21 ± 11 days. Moreover, in assay [2], the “Time to RTV3, Mean ± SD” value stood at 10 ± 4 days; the “Time to RTV3, Median ± IR” value was determined as 10 ± 4 days; the “Time to RTV4, Mean ± SD” value was 11 ± 4 days; the “Time to RTV4, Median ± IR” value is 11 ± 3 days. The “decrease in tumour [18F]-FLT uptake (SUV AUC) after 2 days versus baseline” value in assay [3] is “no significant difference”. In addition, in assay [4] (3 and 6 hours after single p.o. dose of 1 mg/kg PD 0325901), the “phosphorylation of ERK1/2 in tumour” value was “completely ablate”. For the same compound, the “phosphorylation of ERK1/2 in tumour” value in assay [4] (1 hour after single p.o. dose of 1 mg/kg PD 0325901) is “reduce”. The “phosphorylation of AKT in tumour” value in the assay on phospho-Akt (Ser473) is “no marked effect”. Besides, the “phosphorylation of S6 in tumour” value in assay [5] is on record as “no marked effect”. In the assay on phospho-4EBP1 (Thr37/46), the “phosphorylation of 4EBP1 in tumour” value was “no marked effect”. Moreover, the GI50 in the assay on HCT116 cells is 21 nM.

The values above are taken from article PMC3858267, “The Enhanced In Vivo Activity of the Combination of a MEK and a PI3K Inhibitor Correlates with [^18F]-FLT PET in Human Colorectal Cancer Xenograft Tumour-Bearing Mice” (PLoS ONE, 2013).
